Reference: ChEMBL document CHEMBL1134200, “Pimarane cyclooxygenase 2 (COX-2) inhibitor and its structure-activity relationship” (Bioorg Med Chem Lett, 2001)

The molecules below were run against T1, Prostaglandin G/H synthase 2 (Ovis aries, UniProt P79208) (assay: Inhibitory activity against Prostaglandin G/H synthase 2 from sheep placental cotyledons).
T1 sequence (P79208 whole entry): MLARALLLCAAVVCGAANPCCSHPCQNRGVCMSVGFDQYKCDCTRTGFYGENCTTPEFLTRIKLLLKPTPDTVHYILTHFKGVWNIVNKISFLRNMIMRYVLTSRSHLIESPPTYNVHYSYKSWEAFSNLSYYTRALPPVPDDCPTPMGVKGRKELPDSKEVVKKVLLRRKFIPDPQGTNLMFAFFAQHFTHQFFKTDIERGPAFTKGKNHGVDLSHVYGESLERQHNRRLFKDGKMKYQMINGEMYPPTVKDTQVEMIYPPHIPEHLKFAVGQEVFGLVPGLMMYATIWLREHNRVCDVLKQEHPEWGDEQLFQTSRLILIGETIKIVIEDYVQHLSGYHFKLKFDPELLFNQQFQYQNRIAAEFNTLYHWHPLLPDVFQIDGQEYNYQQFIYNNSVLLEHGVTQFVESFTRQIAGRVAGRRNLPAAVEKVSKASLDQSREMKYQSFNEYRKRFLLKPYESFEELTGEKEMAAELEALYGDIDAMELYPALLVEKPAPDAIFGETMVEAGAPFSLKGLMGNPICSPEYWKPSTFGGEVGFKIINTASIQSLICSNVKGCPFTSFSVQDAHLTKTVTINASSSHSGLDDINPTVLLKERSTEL

IC50	SMILES
> 1000 µM	C=C[C@@]1(C)CC=C2C(CCC3[C@](C)(C(=O)OC)CCC[C@@]23C)C1 (stereo not given in full)
194 µM	C[C@]1(CCF)CC=C2C(CCC3[C@](C)(C(=O)F)CCC[C@@]23C)C1 (stereo not given in full)
796 µM	C[C@]1(CC(F)F)CC=C2C(CCC3[C@](C)(C(=O)O)CCC[C@@]23C)C1 (stereo not given in full)
> 1000 µM	COCC[C@@]1(C)CC=C2C(CCC3[C@](C)(C(=O)O)CCC[C@@]23C)C1 (stereo not given in full)
13.2 µM	C=C[C@@]1(C)CC=C2C(CCC3[C@](C)(CCC/C=C/C(=O)O)CCC[C@@]23C)C1 (stereo not given in full)
> 1000 µM	C[C@]1(CCO)CC=C2C(CCC3[C@](C)(C(=O)O)CCC[C@@]23C)C1 (stereo not given in full)
> 1000 µM	CC(=O)OCC[C@@]1(C)CC=C2C(CCC3[C@](C)(C(=O)O)CCC[C@@]23C)C1 (stereo not given in full)
> 1000 µM	C[C@]1(CCF)CC=C2C(CCC3[C@](C)(C(=O)O)CCC[C@@]23C)C1 (stereo not given in full)
819 µM	C=C[C@@]1(C)CC=C2C(CCC3[C@](C)(C(=O)NO)CCC[C@@]23C)C1 (stereo not given in full)
> 1000 µM	C=C[C@@]1(C)CC=C2C(CCC3[C@](C)(CO)CCC[C@@]23C)C1 (stereo not given in full) [ACANTHOL]
> 1000 µM	C=C[C@@]1(C)CC=C2C(CCC3[C@](C)(C(N)=O)CCC[C@@]23C)C1 (stereo not given in full)
82.3 µM	C=C[C@@]1(C)CC=C2C(CCC3[C@](C)(CC(=O)O)CCC[C@@]23C)C1 (stereo not given in full)
105 µM	C=C[C@@]1(C)CC=C2C(CCC3[C@](C)(CCC(=O)O)CCC[C@@]23C)C1 (stereo not given in full)
> 1000 µM	C[C@@]1(C2CO2)CC2CCC3[C@](C)(C(=O)O)CCC[C@@]3(C)[C@@]23O[C@H]3C1 (stereo not given in full)
425 µM	CC[C@@]1(C)CC=C2C(CCC3[C@](C)(C(=O)O)CCC[C@@]23C)C1 (stereo not given in full)
